# Test results taken from patent US10766878B2, “Sulfonylcycloalkyl carboxamide compounds” (Genentech, Inc., priority 2017, dated 2020).
# Target: human TRPA1 (Homo sapiens (Human), UniProt O75762)
# Test: hTRPA1 CHO Ca2+ AUC EVO (IC50); FLIPR Tetra block of cinnamaldehyde induced calcium influx
# Type: cell-based
# Conditions: CHO cells expressing TRPA1, 75 uM cinnamaldehyde agonist
# Procedure: IC50 values ([…]) of compounds on the human and rat TRPA1 channels were determined using a FLIPR Tetra instrument. CHO cells expressing TRPA1 were plated into 384-well plates, incubated overnight at 37 C, and loaded with BD calcium indicator dye for 1 hr at 37° C. followed by 15 minutes. at room temperature. The assay buffer was Hank's Balanced Salt Solution (HBSS) containing 20 mM HEPES (pH readjusted to 7.4) along with 0.02% BSA.
# Following dye load and plate cool down, compounds were added to the cells using FLIPR Tetra. Plates were then incubated with compounds for 20 minutes at room temperature prior to adding agonist. Following this incubation, ˜EC80 concentration of cinnamaldehyde (75 uM for human TRPA1 and 45 uM for rat TRPA1) was added to active the channels and block of cinnamaldehyde induced calcium influx was measured.
# IC50 values were fit with a standard Hill function, keeping the Hill coefficient (n) fixed to 1.5. Fixing the Hill coefficient will generally reduce variability of the IC50 determination. The IC50 values were individually examined to make sure the MIN and MAX points were set correctly prior to validation of the results.
# Sequence of human TRPA1 (O75762 whole entry): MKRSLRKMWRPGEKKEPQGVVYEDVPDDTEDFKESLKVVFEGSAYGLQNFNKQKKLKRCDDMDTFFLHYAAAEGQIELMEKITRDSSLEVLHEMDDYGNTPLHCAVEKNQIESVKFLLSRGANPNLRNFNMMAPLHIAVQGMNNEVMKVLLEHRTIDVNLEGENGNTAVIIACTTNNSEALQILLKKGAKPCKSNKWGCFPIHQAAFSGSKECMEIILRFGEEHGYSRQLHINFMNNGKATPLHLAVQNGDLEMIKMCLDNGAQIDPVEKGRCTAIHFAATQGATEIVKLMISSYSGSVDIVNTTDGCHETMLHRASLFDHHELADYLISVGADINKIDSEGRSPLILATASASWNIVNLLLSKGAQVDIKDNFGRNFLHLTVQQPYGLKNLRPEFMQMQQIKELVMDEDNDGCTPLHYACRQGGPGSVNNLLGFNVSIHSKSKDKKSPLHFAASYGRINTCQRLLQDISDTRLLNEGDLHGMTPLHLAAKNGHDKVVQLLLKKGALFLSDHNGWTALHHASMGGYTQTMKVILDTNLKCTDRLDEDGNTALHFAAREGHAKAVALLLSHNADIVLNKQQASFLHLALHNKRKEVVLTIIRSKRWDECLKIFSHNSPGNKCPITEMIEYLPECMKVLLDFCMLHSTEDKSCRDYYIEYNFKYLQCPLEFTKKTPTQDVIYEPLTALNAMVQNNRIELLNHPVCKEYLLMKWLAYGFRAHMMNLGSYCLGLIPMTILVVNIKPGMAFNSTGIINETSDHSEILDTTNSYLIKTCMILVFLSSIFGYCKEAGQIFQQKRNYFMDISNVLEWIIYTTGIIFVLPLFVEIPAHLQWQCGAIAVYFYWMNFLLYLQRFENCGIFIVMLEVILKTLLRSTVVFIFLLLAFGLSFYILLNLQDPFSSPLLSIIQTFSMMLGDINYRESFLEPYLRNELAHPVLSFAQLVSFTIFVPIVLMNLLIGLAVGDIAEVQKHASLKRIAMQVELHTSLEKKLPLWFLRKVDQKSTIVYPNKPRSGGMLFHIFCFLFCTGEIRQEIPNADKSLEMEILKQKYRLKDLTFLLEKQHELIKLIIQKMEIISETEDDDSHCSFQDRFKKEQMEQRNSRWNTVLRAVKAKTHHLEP
Compound,IC50 (Table 3),IC50 (Table 1)
"O=C(NCc1cn(-c2ccc(C(F)(F)F)nc2)nc1C(F)(F)F)[C@@H]1CC[C@@H]1S(=O)(=O)c1ccc(F)cc1 [Example 24, (1S,2S)-2-(4-fluorophenylsulfonyl)-N-((3-(trifluoromethyl)-1-(6-(trifluoromethyl)pyridin-3-yl)-1H-pyrazol-4-yl)methyl)cyclobutanecarboxamide]",41.5 nM,41.5 nM
"COc1nn(-c2ccc(C(F)(F)F)nc2)cc1CNC(=O)[C@@H]1CCC[C@@H]1S(=O)(=O)c1ccc(F)cc1 [Example 40, (1S,2S)-2-(4-fluorophenylsulfonyl)-N-((3-methoxy-1-(6-(trifluoromethyl)pyridin-3-yl)-1H-pyrazol-4-yl)methyl) cyclopentanecarboxamide]",159 nM,
"O=C(NCc1cn(-c2ccc(C(F)(F)F)nc2)nc1C(F)(F)F)[C@@H]1CCC[C@@H]1S(=O)(=O)c1ccc(F)cc1 [Example 41, (1S,2S)-2-[(4-fluorobenzene)sulfonyl]-N-[[3-(trifluoromethyl)-1-[6-(trifluoromethyl)pyridin-3-yl]-1H-pyrazol-4-yl]methyl]cyclopentane-1-carboxamide]",40.4 nM,

# Other lines, results leading:
IC50 (Table 3),IC50 (Table 1),Compound
98.4 nM,,"O=C(NCc1cn(-c2ccc(C(F)(F)F)nc2)nc1C(F)F)[C@@H]1CC[C@@H]1S(=O)(=O)c1ccc(F)cc1 [Example 20, (1S,2S)-N-((3-(difluoromethyl)-1-(6-(trifluoromethyl)pyridin-3-yl)-1H-pyrazol-4-yl)methyl)-2-((4-fluorophenyl)sulfonyl) cyclobutanecarboxamide]"
386 nM,,"O=C(NCc1cc(-c2cccc(C(F)(F)F)c2)ncn1)[C@@H]1CC[C@@H]1S(=O)(=O)c1ccc(F)cc1 [Example 21, (1S,2S)-2-((4-fluorophenyl)sulfonyl)-N-((6-(3-(trifluoromethyl)phenyl)pyrimidin-4-yl)methyl)cyclobutanecarboxamide]"
113 nM,,"O=C(NCc1cc(-c2ccc(C(F)(F)F)cc2)ncn1)[C@@H]1CC[C@@H]1S(=O)(=O)c1ccc(F)cc1 [Example 27, (1S,2S)-2-(4-fluorophenylsulfonyl)-N-((6-(4-(trifluoromethyl)phenyl)pyrimidin-4-yl)methyl)cyclobutanecarboxamide]"
19.4 nM,19.4 nM,"O=C(NCc1cn(-c2ccc(C(F)(F)F)cc2)nc1Cl)[C@@H]1CC[C@@H]1S(=O)(=O)c1ccc(F)cc1 [Example 28, (1S,2S)-N-((3-chloro-1-(4-(trifluoromethyl)phenyl)-1H-pyrazol-4-yl)methyl)-2-(4-fluorophenylsulfonyl) cyclobutanecarboxamide]"
38.9 nM,38.9 nM,"O=C(NCc1cn(-c2ccc(C(F)(F)F)cc2)nc1Cl)[C@@H]1CCC[C@@H]1S(=O)(=O)c1ccc(F)cc1 [Example 43, (1S,2S)-N-((3-chloro-1-(4-(trifluoromethyl)phenyl)-1H-pyrazol-4-yl)methyl)-2-(4-fluorophenylsulfonyl) cyclopentanecarboxamide]"
